Results on 24 molecules are retold here after US8148391B2 (Cephalon, Inc., priority 2006, dated 2012).

Test [1] addresses T1, c-Met (cytoplasmic domain) (Homo sapiens, UniProt P08581).
T1 construct: 10 ng/mL c-Met (cytoplasmic domain, Invitrogen Corporation #PV3143); purchased Invitrogen Corporation PV3143
As to the kind of experiment: c-Met Kinase Assay (same methods as for ALK, with modifications). The test is classed as biochemical. The conditions noted are these: c-Met kinase inhibition, 1 μM ATP; read-out: cMet Activity. Summed up: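 Plates were coated with phospholipase C-γ substrate (10 μg/mL) in TBS, and the reaction was started with 10 ng/mL c-Met cytoplasmic domain and run 15 min at 37 °C. Phosphoproduct was detected with Eu-N1-labelled PT66 antibody. IC50 came from a variable-slope sigmoidal fit of percent inhibition vs log concentration.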

Test [2] concerns the target T2, baculovirus-expressed ALK (Homo sapiens, UniProt Q9UM73).
T2 construct: host or cells: baculovirus expression system
Description: ALK Kinase Assay (ELISA-type, time-resolved fluorescence). Conditions: ALK kinase inhibition, 1 μM ATP; read-out: ALK Activity. The test is classed as biochemical. The method in brief:
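Plates coated with phospholipase C-γ substrate (10 μg/mL in TBS); reaction started with 30 ng/ml ALK and run 15 min at 37° C. Phosphorylated substrate detected with Eu-N1-labeled PT66 antibody. IC50 from sigmoidal variable-slope fit of percent inhibition vs log concentration.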

T2 sequence (Q9UM73 19-1620): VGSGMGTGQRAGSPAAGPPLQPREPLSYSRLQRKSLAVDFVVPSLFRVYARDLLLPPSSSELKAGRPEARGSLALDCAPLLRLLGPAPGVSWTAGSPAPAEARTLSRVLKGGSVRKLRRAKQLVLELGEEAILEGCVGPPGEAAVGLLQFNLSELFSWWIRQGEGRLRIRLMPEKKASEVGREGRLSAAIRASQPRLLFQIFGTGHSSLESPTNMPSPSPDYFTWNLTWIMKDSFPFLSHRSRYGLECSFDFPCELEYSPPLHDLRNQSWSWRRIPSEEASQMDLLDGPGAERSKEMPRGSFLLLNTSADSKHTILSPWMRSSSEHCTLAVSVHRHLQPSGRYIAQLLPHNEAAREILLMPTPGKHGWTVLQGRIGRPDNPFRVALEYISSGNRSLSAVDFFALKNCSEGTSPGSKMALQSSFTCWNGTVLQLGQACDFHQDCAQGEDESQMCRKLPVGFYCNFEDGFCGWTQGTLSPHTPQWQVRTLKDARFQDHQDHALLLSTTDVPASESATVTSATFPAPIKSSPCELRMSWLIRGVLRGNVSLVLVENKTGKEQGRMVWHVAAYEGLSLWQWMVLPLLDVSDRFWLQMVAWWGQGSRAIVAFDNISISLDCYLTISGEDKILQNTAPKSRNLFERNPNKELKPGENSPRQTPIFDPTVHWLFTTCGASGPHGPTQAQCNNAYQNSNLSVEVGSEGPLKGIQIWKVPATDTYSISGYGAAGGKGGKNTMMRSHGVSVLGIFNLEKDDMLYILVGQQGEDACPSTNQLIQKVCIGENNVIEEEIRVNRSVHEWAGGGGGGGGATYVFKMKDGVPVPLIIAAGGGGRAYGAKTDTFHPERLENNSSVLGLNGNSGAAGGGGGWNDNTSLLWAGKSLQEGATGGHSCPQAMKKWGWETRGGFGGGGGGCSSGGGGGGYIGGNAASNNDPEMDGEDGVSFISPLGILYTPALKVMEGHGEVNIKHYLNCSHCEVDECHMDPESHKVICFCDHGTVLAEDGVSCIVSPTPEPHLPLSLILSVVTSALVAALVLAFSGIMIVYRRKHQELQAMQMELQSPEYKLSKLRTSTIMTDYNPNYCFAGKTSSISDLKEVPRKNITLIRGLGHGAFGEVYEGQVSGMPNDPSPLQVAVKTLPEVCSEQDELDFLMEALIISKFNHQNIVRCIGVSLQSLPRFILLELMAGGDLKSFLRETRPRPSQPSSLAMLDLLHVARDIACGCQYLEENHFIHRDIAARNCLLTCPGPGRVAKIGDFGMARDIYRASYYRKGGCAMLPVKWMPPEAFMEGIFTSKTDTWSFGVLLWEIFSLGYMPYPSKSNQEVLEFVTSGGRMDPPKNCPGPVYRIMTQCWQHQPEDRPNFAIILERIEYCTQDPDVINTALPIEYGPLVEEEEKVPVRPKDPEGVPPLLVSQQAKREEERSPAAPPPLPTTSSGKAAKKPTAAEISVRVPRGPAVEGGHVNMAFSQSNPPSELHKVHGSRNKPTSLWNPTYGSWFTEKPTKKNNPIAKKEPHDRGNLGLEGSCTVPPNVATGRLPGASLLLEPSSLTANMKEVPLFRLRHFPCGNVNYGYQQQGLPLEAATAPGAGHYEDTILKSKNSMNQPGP
T1 sequence (P08581 956-1390 limits assumed): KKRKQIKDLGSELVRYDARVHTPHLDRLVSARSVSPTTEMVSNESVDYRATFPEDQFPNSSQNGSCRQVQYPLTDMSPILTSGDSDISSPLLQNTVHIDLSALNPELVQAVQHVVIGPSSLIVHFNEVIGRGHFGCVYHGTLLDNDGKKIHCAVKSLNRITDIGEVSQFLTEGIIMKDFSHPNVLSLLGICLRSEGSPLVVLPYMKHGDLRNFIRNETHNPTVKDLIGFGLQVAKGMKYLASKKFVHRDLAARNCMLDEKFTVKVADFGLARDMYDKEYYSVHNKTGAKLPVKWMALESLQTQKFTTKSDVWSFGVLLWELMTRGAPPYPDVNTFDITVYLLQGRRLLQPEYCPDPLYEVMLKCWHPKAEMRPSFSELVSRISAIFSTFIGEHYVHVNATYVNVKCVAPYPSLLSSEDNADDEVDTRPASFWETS

For the molecule `CNC(=O)c1cc(F)ccc1Nc1nc(Nc2ccc3c(c2)-n2ccnc2CCC3)ncc1Cl` [Example 1841, 2-[5-Chloro-2-(5,6-dihydro-4H-3,10b-diaza-benzo[e]azulen-9-ylamino)-pyrimidin-4-ylamino]-5-fluoro-N-methyl-benzamide], the results for the IC50 in test [1] and in test [2] were 100 to 1000 nM and 1000 to 10000 nM, respectively.
In the case of `CC(C)S(=O)(=O)c1cccc(F)c1Nc1nc(Nc2ccc3c(c2)-n2ccnc2CCC3)ncc1Cl` [Example 1842, 5-Chloro-N*2*-(5,6-dihydro-4H-3,10b-diaza-benzo[e]azulen-9-yl)-N*4*-[2-fluoro-6-(propane-2-sulfonyl)-phenyl]-pyrimidine-2,4-diamine], the IC50 in test [1] and in test [2] was less than 100 nM in each case.
As to `CNC(=O)c1cccc(F)c1Nc1nc(Nc2ccc3c(c2)-n2c(C)cnc2CCC3)ncc1Cl` [Example 1843, 2-[5-Chloro-2-(1-methyl-5,6-dihydro-4H-3,10b-diaza-benzo[e]azulen-9-ylamino)-pyrimidin-4-ylamino]-3-fluoro-N-methyl-benzamide], the figures for the IC50 in test [1] and in test [2] were 1000 to 10000 nM and 100 to 1000 nM, respectively.
As for `CNC(=O)c1cccc(F)c1Nc1nc(Nc2ccc3c(c2)-c2nccn2CCC3)ncc1Cl` [Example 1844, 2-[5-Chloro-2-(5,6-dihydro-4H-1,3a-diaza-benzo[e]azulen-9-ylamino)-pyrimidin-4-ylamino]-3-fluoro-N-methyl-benzamide], the IC50 in test [1] and in test [2] was less than 100 nM in each case.
For the molecule `CNC(=O)c1cccc(Cl)c1Nc1nc(Nc2ccc3c(c2)-c2nccn2CCC3)ncc1Cl` [Example 1845, 2-[5-Chloro-2-(5,6-dihydro-4H-1,3a-diaza-benzo[e]azulen-9-ylamino)-pyrimidin-4-ylamino]-3-chloro-N-methyl-benzamide], the IC50 in test [1] and in test [2] was 100 to 1000 nM in each case.
For the molecule `CNC(=O)c1scc(C)c1Nc1nc(Nc2ccc3c(c2)-c2nccn2CCC3)ncc1Cl` [Example 1846, 3-[5-Chloro-2-(5,6-dihydro-4H-1,3a-diaza-benzo[e]azulen-9-ylamino)-pyrimidin-4-ylamino]-4-methyl-thiophene-2-carboxylic acid methylamide], the IC50 in test [1] is 100 to 1000 nM; in test [2], 1000 to 10000 nM.
The corresponding values for `CNC(=O)c1cc(F)ccc1Nc1nc(Nc2ccc3c(c2)-c2nccn2CCC3)ncc1Cl` [Example 1847, 2-[5-Chloro-2-(5,6-dihydro-4H-1,3a-diaza-benzo[e]azulen-9-ylamino)-pyrimidin-4-ylamino]-5-fluoro-N-methyl-benzamide] are 100 to 1000 nM and 1000 to 10000 nM.
In the case of `CNC(=O)c1cccc(F)c1Nc1nc(Nc2ccc3c(c2)NC(=O)CN(C(C)=O)C3)ncc1Cl` [Example 1848, 2-[2-(4-Acetyl-2-oxo-2,3,4,5-tetrahydro-1H-benzo[e][1,4]diazepin-8-ylamino)-5-chloro-pyrimidin-4-ylamino]-3-fluoro-N-methyl-benzamide], the IC50 in test [1] and in test [2] was 100 to 1000 nM each time.
As to `CNC(=O)c1sccc1Nc1nc(Nc2ccc3c(c2)NC(=O)CN(C(C)=O)C3)ncc1Cl` [Example 1849, 3-[2-(4-Acetyl-2-oxo-2,3,4,5-tetrahydro-1H-benzo[e][1,4]diazepin-8-ylamino)-5-chloro-pyrimidin-4-ylamino]-thiophene-2-carboxylic acid methyl amide], the figures for the IC50 in test [1] and in test [2] were less than 100 nM and 100 to 1000 nM, respectively.
As to `CNC(=O)c1scc(C)c1Nc1nc(Nc2ccc3c(c2)NC(=O)CN(C(C)=O)C3)ncc1Cl` [Example 1850, 3-[2-(4-Acetyl-2-oxo-2,3,4,5-tetrahydro-1H-benzo[e][1,4]diazepin-8-ylamino)-5-chloro-pyrimidin-4-ylamino]-4-methyl-thiophene-2-carboxylic acid methylamide], the IC50 in test [1] and in test [2] was 100 to 1000 nM throughout.
Consider `CCN1C(=O)CN(C(C)=O)Cc2ccc(Nc3ncc(Cl)c(Nc4c(F)cccc4C(=O)NC)n3)cc21` [Example 1851, 2-[2-(4-Acetyl-1-ethyl-2-oxo-2,3,4,5-tetrahydro-1H-benzo[e][1,4]diazepin-8-ylamino)-5-chloro-pyrimidin-4-ylamino]-3-fluoro-N-methyl-benzamide], for which the figures for the IC50 in test [1] and in test [2] were less than 100 nM and 1000 to 10000 nM, respectively.
The corresponding values for `CCN1C(=O)CN(C(C)=O)Cc2ccc(Nc3ncc(Cl)c(Nc4c(C)csc4C(=O)NC)n3)cc21` [Example 1852, 3-[2-(4-Acetyl-1-ethyl-2-oxo-2,3,4,5-tetrahydro-1H-benzo[e][1,4]diazepin-8-ylamino)-5-chloro-pyrimidin-4-ylamino]-4-methyl-thiophene-2-carboxylic acid-methylamide] are less than 100 nM and less than 100 nM.
Turning to `CCN1C(=O)CN(C(C)=O)Cc2ccc(Nc3ncc(Cl)c(Nc4ccsc4C(=O)NC)n3)cc21` [Example 1853, 3-[2-(4-Acetyl-1-ethyl-2-oxo-2,3,4,5-tetrahydro-1H-benzo[e][1,4]diazepin-8-ylamino)-5-chloro-pyrimidin-4-ylamino]-thiophene-2-carboxylic acid methylamide], the IC50 is less than 100 nM in test [1] and 1000 to 10000 nM in test [2].
Regarding `CCN1C(=O)CN(C(C)=O)Cc2ccc(Nc3ncc(Cl)c(Nc4c(Cl)cccc4C(=O)NC)n3)cc21` [Example 1854, 2-[2-(4-Acetyl-1-ethyl-2-oxo-2,3,4,5-tetrahydro-1H-benzo[e][1,4]diazepin-8-ylamino)-5-chloro-pyrimidin-4-ylamino]-3-chloro-N-methyl-benzamide], the figures for the IC50 in test [1] and in test [2] were less than 100 nM and 100 to 1000 nM, respectively.
The corresponding values for `CCN1C(=O)CN(C(C)=O)Cc2ccc(Nc3ncc(Cl)c(Nc4ccccc4C(=O)NC)n3)cc21` [Example 1855, 2-[2-(4-Acetyl-1-ethyl-2-oxo-2,3,4,5-tetrahydro-1H-benzo[e][1,4]diazepin-8-ylamino)-5-chloro-pyrimidin-4-ylamino]-N-methyl-benzamide] are less than 100 nM and 1000 to 10000 nM.
The corresponding values for `CCN1CC(=O)N(CC)c2cc(Nc3ncc(Cl)c(Nc4ccsc4C(=O)NC)n3)ccc2C1` [Example 1856, 3-[5-Chloro-2-(1,4-diethyl-2-oxo-2,3,4,5-tetrahydro-1H-benzo[e][1,4]diazepin-8-ylamino)-pyrimidin-4-ylamino]-thiophene-2-carboxylic acid methylamide] are less than 100 nM and less than 100 nM.
`CNC(=O)c1cccc(F)c1Nc1nc(Nc2ccc3c(c2)NC(=O)CN(C(=O)OCc2ccccc2)C3)ncc1Cl` [Example 1857, 8-[5-Chloro-4-(2-fluoro-6-methylcarbamoyl-phenylamino)-pyrimidin-2-ylamino]-2-oxo-1,2,3,5-tetrahydro-benzo[e][1,4]diazepine-4-carboxylic acid benzyl ester]: the IC50 in test [1] is less than 100 nM; in test [2] it was 100 to 1000 nM.
The corresponding values for `CNC(=O)c1ccccc1Nc1nc(Nc2ccc3c(c2)NC(=O)CNC3)ncc1Cl` [Example 1858, 2-[5-Chloro-2-(2-oxo-2,3,4,5-tetrahydro-1H-benzo[e][1,4]diazepin-8-ylamino)-pyrimidin-4-ylamino]-N-methyl-benzamide] are less than 100 nM and 100 to 1000 nM.
The corresponding values for `CNC(=O)c1ccccc1Nc1nc(Nc2ccc3c(c2)NC(=O)CN(Cc2ccccc2)C3)ncc1Cl` [Example 1859, 2-[2-(4-Benzyl-2-oxo-2,3,4,5-tetrahydro-1H-benzo[e][1,4]diazepin-8-ylamino)-5-chloro-pyrimidin-4-ylamino]-N-methyl-benzamide] are 100 to 1000 nM and 100 to 1000 nM.
The corresponding values for `CNC(=O)c1cccc(F)c1Nc1nc(Nc2ccc3c(c2)NC(=O)CN(S(C)(=O)=O)C3)ncc1Cl` [Example 1860, 2-[5-Chloro-2-(4-methanesulfonyl-2-oxo-2,3,4,5-tetrahydro-1H-benzo[e][1,4]diazepin-8-ylamino)pyrimidin-4-ylamino]-3-fluoro-N-methyl-benzamide] are less than 100 nM and less than 100 nM.
With `CNC(=O)c1cccc(F)c1Nc1nc(Nc2ccc3c(c2)NC(=O)CN(CCC(F)(F)F)C3)ncc1Cl` [Example 1861, 2-{5-Chloro-2-[2-oxo-4-(3,3,3-trifluoro-propyl)-2,3,4,5-tetrahydro-1H-benzo[e][1,4]diazepin-8-ylamino]-pyrimidin-4-ylamino}-3-fluoro-N-methyl-benzamide], the values for the IC50 in test [1] and in test [2] were less than 100 nM and 100 to 1000 nM, respectively.
In the case of `CNC(=O)c1cccc(F)c1Nc1nc(Nc2ccc3c(c2)NC(=O)CN(CCOC)C3)ncc1Cl` [Example 1862, 2-{5-Chloro-2-[4-(2-methoxy-ethyl)-2-oxo-2,3,4,5-tetrahydro-1H-benzo[e][1,4]diazepin-8-ylamino]-pyrimidin-4-ylamino}-3-fluoro-N-methyl-benzamide], the IC50 in test [1] is less than 100 nM; in test [2], 100 to 1000 nM.
The corresponding values for `CCN1CC(=O)Nc2cc(Nc3ncc(Cl)c(Nc4c(F)cccc4C(=O)NC)n3)ccc2C1` [Example 1863, 2-[5-Chloro-2-(4-ethyl-2-oxo-2,3,4,5-tetrahydro-1H-benzo[e][1,4]diazepin-8-ylamino)-pyrimidin-4-ylamino]-3-fluoro-N-methyl-benzamide] are less than 100 nM and 100 to 1000 nM.
For the molecule `CNC(=O)c1ccccc1Nc1nc(Nc2ccc3c(c2)NC(=O)CN(CCOC)C3)ncc1Cl` [Example 1864, 2-{5-Chloro-2-[4-(2-methoxy-ethyl)-2-oxo-2,3,4,5-tetrahydro-1H-benzo[e][1,4]diazepin-8-ylamino]-pyrimidin-4-ylamino}-N-methyl-benzamide], the IC50 in test [1] and in test [2] was less than 100 nM in each case.
